Measured values reported in paper PMC8079033, “Design, synthesis, anticancer evaluation, and molecular modelling studies of novel tolmetin derivatives as potential VEGFR-2 inhibitors and apoptosis inducers” (Journal of Enzyme Inhibition and Medicinal Chemistry, 2021).

Columns and labels:
[1] = system: colon (HCT-15) cell line; assay: MTT cytotoxicity assay; assay type: cell-based; settings: Homo sapiens, mean ± SD of three experiments
[2] = system: panel of 60 tumour cell lines; assay: NCI 60-cell line one-dose screen, summary over the panel; assay type: cell-based, human; settings: Homo sapiens, 60 cell, listed leukaemia, lung, colon, CNS, melanoma, ovarian, renal, breast lines, read-out: GI% range, potent growth inhibitory effects on the cell lines listed in the text
Description: Anticancer activity screening of the newly synthesised compounds was measured in vitro utilising 60 different human tumour cell lines provided by US National Cancer Institute according to previously reported standard procedure[41–43] as follows: Cells are inoculated into 96-well microtiter plates in 100 ml. After cell inoculation, the microtiter plates are incubated at 37 °C, 5% CO2, 95% air, and 100% relative humidity for 24 h prior to addition of experimental compounds. After 24 h, two plates of each cell line are fixed in situ with TCA, to represent a measurement of the cell population for each cell line at the time of compound addition (Tz). Experimental compounds are solubilised in dimethyl sulfoxide at 400-fold the desired final maximum test concentration and stored frozen prior to use. At the time of compound addition, an aliquot of frozen concentrate is thawed and diluted to twice the desired final maximum test concentration with a complete medium containing […] gentamicin. Aliquots of […] of the compounds dilutions are added to the appropriate microtiter wells already containing 100 ml of medium, resulting in the required final compound concentration. Following compound addition, the plates are incubated for an additional 48 h at 37 °C, 5% CO2, 95% air, and 100% relative humidity. […] The bound stain is subsequently solubilised with a 10 mM trizma base, and the absorbance is read on an automated plate reader at a wavelength of 515 nm. […] Using the absorbance measurements [time zero, (Tz), control growth, (C), and test growth in the presence of compound (Ti)], the percentage growth is calculated for each compound. […]
Fifteen newly synthesised compounds were tested for their in vitro antiproliferative activity by the National Cancer Institute (NCI), Maryland, USA[50], under the Developmental Therapeutic Program (DTP)[41]^,[43]^,[51]^,[52]. The tested compounds were evaluated at a concentration of 10 µM on a panel of 60 tumour cell lines representing leukaemia and non-small cell lung, colon, CNS, melanoma, ovarian, renal, prostate, and breast cancers. […]

[3] = system: leukaemia HL-60 (TB) cell line; assay: MTT cytotoxicity assay; assay type: cell-based; settings: Homo sapiens, mean ± SD of three experiments
[4] = system: K-562; assay: NCI 60-cell line one-dose antiproliferative screen (SRB); assay type: cell-based; settings: Homo sapiens, K562, read-out: growth inhibition % (GI%)
How it was run: (§1)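 Seed cells; incubate 24 h; fix time-zero plates with TCA; add compound to 10 µM; incubate 48 h at 37 °C; fix in cold TCA; stain with 0.4% SRB; solubilise in 10 mM Tris base; read 515 nm.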

[5] = system: DU-145; assay: as above; assay type: cell-based; settings: Homo sapiens, read-out: growth inhibition % (GI%)
How it was run: as §1

[6] = system: SK-MEL-28; assay: as above; assay type: cell-based; settings: Homo sapiens, read-out: growth inhibition % (GI%)
How it was run: as §1

[7] = system: SF-539; assay: as above; assay type: cell-based; settings: Homo sapiens, read-out: growth inhibition % (GI%)
How it was run: as §1

[8] = system: UACC-257; assay: as above; assay type: cell-based; settings: Homo sapiens, read-out: growth inhibition % (GI%)
How it was run: as §1

[9] = system: UACC-62; assay: as above; assay type: cell-based; settings: Homo sapiens, read-out: growth inhibition % (GI%)
How it was run: as §1

[10] = system: SK-OV-3; assay: as above; assay type: cell-based; settings: Homo sapiens, read-out: growth inhibition % (GI%)
How it was run: as §1

[11] = system: KM12; assay: as above; assay type: cell-based; settings: Homo sapiens, read-out: growth inhibition % (GI%)
How it was run: as §1

[12] = system: HOP-92; assay: as above; assay type: cell-based; settings: Homo sapiens, read-out: growth inhibition % (GI%)
How it was run: as §1

[13] = system: 786-0; assay: as above; assay type: cell-based; settings: Homo sapiens, read-out: growth inhibition % (GI%)
How it was run: as §1

[14] = system: Colo 205; assay: as above; assay type: cell-based; settings: Homo sapiens, read-out: growth inhibition % (GI%)
How it was run: as §1

[15] = system: HCC-2998; assay: as above; assay type: cell-based; settings: Homo sapiens, read-out: growth inhibition % (GI%)
How it was run: as §1

[16] = system: SR; assay: as above; assay type: cell-based; settings: Homo sapiens, read-out: growth inhibition % (GI%)
How it was run: as §1

[17] = system: ACHN; assay: as above; assay type: cell-based; settings: Homo sapiens, read-out: growth inhibition % (GI%)
How it was run: as §1

[18] = system: SF-268; assay: as above; assay type: cell-based; settings: Homo sapiens, read-out: growth inhibition % (GI%)
How it was run: as §1

[19] = system: OVCAR-3; assay: as above; assay type: cell-based; settings: Homo sapiens, read-out: growth inhibition % (GI%)
How it was run: as §1

[20] = system: HT29; assay: as above; assay type: cell-based; settings: Homo sapiens, HT-29, read-out: growth inhibition % (GI%)
How it was run: as §1

[21] = system: HCT-116; assay: as above; assay type: cell-based; settings: Homo sapiens, read-out: growth inhibition % (GI%)
How it was run: as §1

[22] = system: BT-5; assay: as above; assay type: cell-based; settings: Homo sapiens, read-out: growth inhibition % (GI%)
How it was run: as §1

[23] = system: NCI/ADR-RES; assay: as above; assay type: cell-based; settings: Homo sapiens, read-out: growth inhibition % (GI%)
How it was run: as §1

[24] = system: TK-10; assay: as above; assay type: cell-based; settings: Homo sapiens, read-out: growth inhibition % (GI%)
How it was run: as §1

[25] = system: NCI-H23; assay: as above; assay type: cell-based; settings: Homo sapiens, read-out: growth inhibition % (GI%)
How it was run: as §1

[26] = system: HS 578 T; assay: as above; assay type: cell-based; settings: Homo sapiens, read-out: growth inhibition % (GI%)
How it was run: as §1

[27] = system: MOLT-4; assay: as above; assay type: cell-based; settings: Homo sapiens, read-out: growth inhibition % (GI%)
How it was run: as §1

[28] = system: MALME-3M; assay: as above; assay type: cell-based; settings: Homo sapiens, read-out: growth inhibition % (GI%)
How it was run: as §1

[29] = system: SK-MEL-2; assay: as above; assay type: cell-based; settings: Homo sapiens, read-out: growth inhibition % (GI%)
How it was run: as §1

[30] = system: renal (UO-31) cell line; assay: MTT cytotoxicity assay; assay type: cell-based; settings: Homo sapiens, mean ± SD of three experiments
[31] = molecular target: T1, VEGFR-2 (KDR) (Homo sapiens, UniProt P35968); assay: VEGFR-2 (KDR) Kinase Assay Kit (Kinase-Glo Max luminescence); assay type: biochemical; settings: mean ± SD of three experiments
T1 construct: purchased 40325
T1 sequence (P35968 20-1356): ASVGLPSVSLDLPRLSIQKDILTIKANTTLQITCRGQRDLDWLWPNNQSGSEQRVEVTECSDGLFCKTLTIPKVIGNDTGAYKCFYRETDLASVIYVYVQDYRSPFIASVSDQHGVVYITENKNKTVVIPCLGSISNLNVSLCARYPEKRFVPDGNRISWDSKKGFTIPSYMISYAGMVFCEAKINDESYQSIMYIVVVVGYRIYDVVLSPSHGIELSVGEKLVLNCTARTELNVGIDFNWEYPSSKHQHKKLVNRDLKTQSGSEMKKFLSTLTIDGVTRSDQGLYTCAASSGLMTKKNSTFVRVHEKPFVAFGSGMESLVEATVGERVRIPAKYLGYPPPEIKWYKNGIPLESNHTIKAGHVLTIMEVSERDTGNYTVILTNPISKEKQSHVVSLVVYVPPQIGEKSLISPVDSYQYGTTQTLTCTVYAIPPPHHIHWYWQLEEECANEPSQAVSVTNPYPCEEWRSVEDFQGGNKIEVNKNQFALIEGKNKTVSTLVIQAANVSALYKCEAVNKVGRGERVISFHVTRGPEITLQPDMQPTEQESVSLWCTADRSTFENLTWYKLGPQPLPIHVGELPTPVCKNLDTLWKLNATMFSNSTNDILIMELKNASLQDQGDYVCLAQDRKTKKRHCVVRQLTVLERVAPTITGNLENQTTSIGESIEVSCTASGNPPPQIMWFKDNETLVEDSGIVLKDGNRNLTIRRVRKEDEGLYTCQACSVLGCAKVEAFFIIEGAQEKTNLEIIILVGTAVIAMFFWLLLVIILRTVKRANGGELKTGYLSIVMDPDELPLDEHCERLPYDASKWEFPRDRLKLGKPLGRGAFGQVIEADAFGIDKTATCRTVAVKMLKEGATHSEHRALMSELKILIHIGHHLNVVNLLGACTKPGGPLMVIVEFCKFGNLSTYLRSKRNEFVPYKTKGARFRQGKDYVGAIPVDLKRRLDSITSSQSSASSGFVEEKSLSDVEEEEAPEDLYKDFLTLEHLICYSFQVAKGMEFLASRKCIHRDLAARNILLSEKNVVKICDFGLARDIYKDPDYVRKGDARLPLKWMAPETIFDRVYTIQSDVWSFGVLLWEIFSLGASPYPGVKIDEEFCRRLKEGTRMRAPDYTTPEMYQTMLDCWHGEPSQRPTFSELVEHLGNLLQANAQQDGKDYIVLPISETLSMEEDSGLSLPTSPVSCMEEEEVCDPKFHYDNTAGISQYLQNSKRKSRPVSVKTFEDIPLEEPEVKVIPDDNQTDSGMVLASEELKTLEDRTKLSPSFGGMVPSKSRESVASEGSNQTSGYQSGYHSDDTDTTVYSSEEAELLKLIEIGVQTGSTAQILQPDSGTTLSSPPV
Description: In brief, the master mixture (25 µl per well) was prepared and added to each well. 5 µl of inhibitor solution of each well labelled as “Test Inhibitor” was added. For the “Positive Control” and “Blank,” 5 µl of the same solution without inhibitor (Inhibitor buffer) was added. 3 ml of kinase buffer was prepared by mixing 600 µl of kinase buffer with 2400 µl water. To the wells designated as “Blank,” 20 µl of kinase buffer was added. The amount of VEGFR-2 required for the assay was calculated and the enzyme was diluted to 1 ng/µl with kinase buffer. The reaction was initiated by adding 20 µl of diluted VEGFR-2 enzyme to the wells designated “Positive Control” and “Test Inhibitor Control.” The mixtures were incubated at 30 °C for 45 min. After the 45 min, 50 µl of Kinase-Glo Max reagent was added to each well. The plate was incubated at room temperature for 15 min. Luminescence was measured using the microplate reader.

SMILES	IC50 [1]	inhibition at 10 µM [2]	IC50 [3]	inhibition at 10 µM [4]	inhibition at 10 µM [5]	inhibition at 10 µM [6]	inhibition at 10 µM [7]	inhibition at 10 µM [8]	inhibition at 10 µM [9]	inhibition at 10 µM [10]	inhibition at 10 µM [11]	inhibition at 10 µM [12]	inhibition at 10 µM [13]	inhibition at 10 µM [14]	inhibition at 10 µM [15]	inhibition at 10 µM [16]	inhibition at 10 µM [17]	inhibition at 10 µM [18]	inhibition at 10 µM [19]	inhibition at 10 µM [20]	also measured
Cc1ccc(C(=O)c2ccc(CC(=O)NN=Cc3ccc(O)cc3O)n2C)cc1 [Compound 5c, N′-(2,4-Dihydroxybenzylidene)-2–(1-methyl-5–(4-methylbenzoyl)-1H-pyrrol-2-yl) acetohydrazide]	19 ± 1.03 µM	60.7 to 95%	31.7 ± 1.7 µM	55.1%	48.7%	53.6%	55.6%	41.7%	70.2%	54.9%	63.9%	16.9%	56.6%	58.2%	40.4%	82.7%	83.5%	62.7%	62.8%	36%	inhibition at 10 µM [21]: 65.1%; inhibition at 10 µM [22]: 49.2%; inhibition at 10 µM [23]: 65.4%; inhibition at 10 µM [24]: 47.1%; inhibition at 10 µM [25]: 57.6%; inhibition at 10 µM [26]: 25.1%; inhibition at 10 µM [27]: 87%; inhibition at 10 µM [28]: 51.4%; inhibition at 10 µM [29]: 40.6%; IC50 [30]: 17.4 ± 0.93 µM
Cc1ccc(C(=O)c2ccc(CC(=O)NN=Cc3cccc(O)c3O)n2C)cc1 [Compound 5b, N′-(2,3-Dihydroxybenzylidene)-2–(1-methyl-5–(4-methylbenzoyl)-1H-pyrrol-2-yl) acetohydrazide]	6.62 ± 0.35 µM	60.9 to 95.9%	10.3 ± 0.55 µM	69.6%	50.7%	20%	66.2%	10.3%	60.9%	32%	55.8%	43.8%	23.6%	37%	29.4%	91.1%	86.5%	62.8%	76.5%	13.3%	IC50 [31]: 0.2 ± 0.02 µM; inhibition at 10 µM [21]: 69.2%; inhibition at 10 µM [22]: 54.3%; inhibition at 10 µM [23]: 80.9%; inhibition at 10 µM [24]: 61.2%; inhibition at 10 µM [25]: 54.6%; inhibition at 10 µM [26]: 12.6%; inhibition at 10 µM [27]: 88.8%; inhibition at 10 µM [28]: 41.3%; inhibition at 10 µM [29]: < 10%; IC50 [30]: 7.69 ± 0.41 µM
